We go through 11 compounds from patent US5378696A, “Rapamycin esters” (American Home Products Corporation, priority 1993, dated 1995).

In assay [1] the test system is lymphocyte proliferation, cells from the thymus of normal BALB/c mice (PHA and IL-1). Description: comitogen-induced thymocyte proliferation procedure (LAF). The format is cell-based. The settings on record: ratio, thymocytes 72 hours with PHA and IL-1, rapamycin 1.0. The procedure: (§1) Immunosuppressive activity was evaluated in an in vitro standard pharmacological test procedure to measure lymphocyte proliferation (LAF) and in two in vivo standard pharmacological test procedures. The first in vivo procedure was a popliteal lymph node (PLN) test procedure which measured the effect of compounds of this invention on a mixed lymphocyte reaction and the second in vivo procedure evaluated the survival time of a pinch skin graft.
Briefly, cells from the thymus of normal BALB/c mice are cultured for 72 hours with PHA and IL-1 and pulsed with tritiated thymidine during the last six hours. […] Cells are harvested and incorporated; radioactivity is determined. inhibition of lymphoproliferation is assessed in percent change in counts per minute from non-drug treated controls. The results are expressed by the following ratio: [formula]

The test system of another assay is pinch skin graft. Description: survival time of pinch skin graft. The format is in vivo, mouse (male DBA/2 donors, male BALB/c recipients). The settings on record: intraperitoneally, mean graft survival time ± S.D. The method, then:
as §1
The second in vivo test procedure is designed to determine the survival time of pinch skin graft from male DBA/2 donors transplanted to male BALB/c recipients. The method is adapted from Billingham R. E. and Medawar P. B., J. Exp. Biol. 28:385-402, (1951). Briefly, a pinch skin graft from the donor is grafted on the dorsum of the recipient as a homograft, and an autograft is used as control in the same region. […] Untreated recipients serve as rejection control. The graft is monitored daily and observations are recorded until the graft becomes dry and forms a blackened scab. This is considered as the rejection day. The mean graft survival time (number of days±S.D.) of the drug treatment group is compared with the control group.

A further assay deals with Candida albicans 3669. Description: antifungal plate test procedure. Format: cell-based. The method, then: (§2) The following represents the typical procedure used. Compound to be tested was placed on sterile dried 1/4" plate disks, and allowed to dry. Agar plates were seeded with fungi and allowed to solidify. The impregnated disks were placed on the seeded Agar surface and incubated for the time required for the particular culture. Results are expressed in MIC (μg/ml) to inhibit growth.

Assay [2] relates to Candida albicans ATCC 10231. Description: antifungal plate test procedure. Format: cell-based. The procedure: as §2
Assay [3] deals with Candida albicans ATCC 38246. Description: antifungal plate test procedure. The format is cell-based. The method, then: as §2
Assay [4] concerns Candida albicans ATCC 38247. Description: antifungal plate test procedure. The format is cell-based. The method, then: as §2
Assay [5] deals with Candida albicans ATCC 38248. Description: antifungal plate test procedure. The format is cell-based. The procedure:
as §2

Setting [6] is: Candida albicans, 3669, strain 3669, read-out: MIC.
Where [7] appears, read: Candida albicans, ATCC10231, ATCC 10231, read-out: MIC.
Setting [8] is: Candida albicans, ATCC38246, ATCC 38246, read-out: MIC.
Setting [9] is: Candida albicans, ATCC38247, ATCC 38247, read-out: MIC.
Setting [10] is: Candida albicans, ATCC38248, ATCC 38248, read-out: MIC.

Structures are written as SMILES. ≈ marks a conversion by molar mass, not a printed value. Counter-ions that a name gives are not always drawn. Like-named read-outs stand apart in the source and are kept apart here. A value given as a limit tells only on which side of the number the result lay.

As a reminder, the MIC is the smallest concentration in the dilution series that meets the test's criterion for growth inhibition.

On to `CO[C@H]1C[C@@H]2CC[C@@H](C)[C@@](O)(O2)C(=O)C(=O)N2CCCC[C@H]2C(=O)O[C@H]([C@H](C)C[C@@H]2CC[C@@H](OC(=O)CCCC(=O)O)[C@H](OC)C2)CC(=O)[C@H](C)/C=C(\C)[C@@H](OC(=O)CCCC(=O)O)[C@@H](OC)C(=O)[C@H](C)C[C@H](C)/C=C/C=C/C=C/1C` [Example 4, Rapamycin-31,42-bishemiglutarate], for which, in assay [1], the “LAF (ratio)” value is reported as 0.56. For the same compound, the “Skin Graft (days + SD), mean graft survival time” value (“Skin Graft (days + SD)” below) in the assay on pinch skin graft came to 10.2 ± 1.7 days. The MIC was 0.4 µg/mL (≈ 0.35 µM) in the assay on Candida albicans 3669 (setting [6]); over 0.4 µg/mL in assay [2] (setting [7]); 0.2 µg/mL (≈ 0.175 µM) in assay [3] (setting [8]); over 0.4 µg/mL in assay [4] (setting [9]); 0.2 µg/mL (≈ 0.175 µM) in assay [5] (setting [10]).

Take `CO[C@H]1C[C@@H]2CC[C@@H](C)[C@@](O)(O2)C(=O)C(=O)N2CCCC[C@H]2C(=O)O[C@H]([C@H](C)C[C@@H]2CC[C@@H](OC(=O)CCC(=O)OCc3ccccc3)[C@H](OC)C2)CC(=O)[C@H](C)/C=C(\C)[C@@H](O)[C@@H](OC)C(=O)[C@H](C)C[C@H](C)/C=C/C=C/C=C/1C` [Example 3, Rapamycin-42-(monobenzylsuccinate)]: the “LAF (ratio)” value in assay [1] is listed as 3.27. Besides, the “Skin Graft (days + SD)” value with pinch skin graft worked out at 12.7 ± 0.9 days. The MIC in the assay on Candida albicans 3669 (setting [6]) is 0.1 µg/mL (≈ 0.0905 µM); in assay [2] (setting [7]), 0.2 µg/mL (≈ 0.181 µM); in assay [3] (setting [8]), 0.1 µg/mL (≈ 0.0905 µM); in assay [4] (setting [9]) it was 0.4 µg/mL (≈ 0.362 µM); in assay [5] (setting [10]) it was 0.1 µg/mL (≈ 0.0905 µM).

Consider `CO[C@H]1C[C@@H]2CC[C@@H](C)[C@@](O)(O2)C(=O)C(=O)N2CCCC[C@H]2C(=O)O[C@H]([C@H](C)C[C@@H]2CC[C@@H](OC(=O)CCC(=O)OCc3ccccc3)[C@H](OC)C2)CC(=O)[C@H](C)/C=C(\C)[C@@H](OC(=O)CCC(=O)OCc2ccccc2)[C@@H](OC)C(=O)[C@H](C)C[C@H](C)/C=C/C=C/C=C/1C` [Example 2, Rapamycin-31,42-bis(monobenzylsuccinate)], for which the “LAF (ratio)” value in assay [1] is on record as 0.9. In the assay with pinch skin graft, the “Skin Graft (days + SD)” value was 10.7 ± 1.2 days. Also, the MIC was 0.4 µg/mL (≈ 0.309 µM) in the assay on Candida albicans 3669 (setting [6]); over 0.4 µg/mL in assay [2] (setting [7]); 0.4 µg/mL (≈ 0.309 µM) in assay [3] (setting [8]); over 0.4 µg/mL in assay [4] (setting [9]); 0.4 µg/mL (≈ 0.309 µM) in assay [5] (setting [10]).

In the case of `CO[C@H]1C[C@@H]2CC[C@@H](C)[C@@](O)(O2)C(=O)C(=O)N2CCCC[C@H]2C(=O)O[C@H]([C@H](C)C[C@@H]2CC[C@@H](OC(=O)COCC(=O)O)[C@H](OC)C2)CC(=O)[C@H](C)/C=C(\C)[C@@H](OC(=O)COCC(=O)O)[C@@H](OC)C(=O)[C@H](C)C[C@H](C)/C=C/C=C/C=C/1C` [Example 10, Rapamycin-31,42-bishemi-3'-oxoglutarate bistromethamine salt], the “LAF (ratio)” value in assay [1] is given as 0.18. Moreover, in the assay with pinch skin graft, the “Skin Graft (days + SD)” value came to 10.8 ± 0.8 days. The MIC in the assay with Candida albicans 3669 (strain 3669) was over 0.4 µg/mL; in assay [2] (ATCC 10231) it was 0.1 µg/mL; in assay [3] (ATCC 38246), over 0.4 µg/mL; in assay [4] (ATCC 38247) it was 0.2 µg/mL; in assay [5] (ATCC 38248), 0.4 µg/mL.

For `CO[C@H]1C[C@@H]2CC[C@@H](C)[C@@](O)(O2)C(=O)C(=O)N2CCCC[C@H]2C(=O)O[C@H]([C@H](C)C[C@@H]2CC[C@@H](OC(=O)COCC(=O)O)[C@H](OC)C2)CC(=O)[C@H](C)/C=C(\C)[C@@H](O)[C@@H](OC)C(=O)[C@H](C)C[C@H](C)/C=C/C=C/C=C/1C` [Example 7, Rapamycin-42-hemi-3'-oxoglutarate], the “LAF (ratio)” value in assay [1] stood at 0.97. Moreover, in the assay on pinch skin graft, the “Skin Graft (days + SD)” value was determined as 12.0 ± 1.0 days. Moreover, the MIC in the assay with Candida albicans 3669 (setting [6]) was found to be 0.2 µg/mL (≈ 0.194 µM); in assay [2] (setting [7]), 0.1 µg/mL (≈ 0.0971 µM); in assay [3] (setting [8]), 0.4 µg/mL (≈ 0.388 µM); in assay [4] (setting [9]), 0.1 µg/mL (≈ 0.0971 µM); in assay [5] (setting [10]), 0.1 µg/mL (≈ 0.0971 µM).

Consider `C=CCOC(=O)CCCC(=O)O[C@@H]1CC[C@@H](C[C@@H](C)[C@@H]2CC(=O)[C@H](C)/C=C(\C)[C@@H](O)[C@@H](OC)C(=O)[C@H](C)C[C@H](C)/C=C/C=C/C=C(\C)[C@@H](OC)C[C@@H]3CC[C@@H](C)[C@@](O)(O3)C(=O)C(=O)N3CCCC[C@H]3C(=O)O2)C[C@H]1OC` [Example 14, Rapamycin-42-allylglutarate], for which the “LAF (ratio)” value in assay [1] came out at 3.42. The “Skin Graft (days + SD)” value with pinch skin graft is recorded as 11.0 ± 0.0 days.

In the case of `CO[C@H]1C[C@@H]2CC[C@@H](C)[C@@](O)(O2)C(=O)C(=O)N2CCCC[C@H]2C(=O)O[C@H]([C@H](C)C[C@@H]2CC[C@@H](OC(=O)COCC(=O)O)[C@H](OC)C2)CC(=O)[C@H](C)/C=C(\C)[C@@H](OC(=O)COCC(=O)O)[C@@H](OC)C(=O)[C@H](C)C[C@H](C)/C=C/C=C/C=C/1C` [Example 9, Rapamycin-31,42-bishemi-3'-oxoglutarate disodium salt], in assay [1] (disodium salt), the “LAF (ratio)” value stood at 0.22. Moreover, the “Skin Graft (days + SD)” value with pinch skin graft (disodium salt) is listed as 10.2 ± 1.2 days. For the same compound, the MIC with Candida albicans 3669 (strain 3669) is over 0.4 µg/mL; in assay [2] (ATCC 10231, disodium salt) it was 0.2 µg/mL; in assay [3] (ATCC 38246), over 0.4 µg/mL; in assay [4] (ATCC 38247, disodium salt), 0.2 µg/mL; in assay [5] (ATCC 38248, disodium salt) it was 0.4 µg/mL.

Turning to `CO[C@H]1C[C@@H]2CC[C@@H](C)[C@@](O)(O2)C(=O)C(=O)N2CCCC[C@H]2C(=O)O[C@H]([C@H](C)C[C@@H]2CC[C@@H](OC(=O)CCC(=O)O)[C@H](OC)C2)CC(=O)[C@H](C)/C=C(\C)[C@@H](OC(=O)CCC(=O)O)[C@@H](OC)C(=O)[C@H](C)C[C@H](C)/C=C/C=C/C=C/1C` [Example 11, Rapamycin-31,42-bishemisuccinate], the “Skin Graft (days + SD)” value in the assay with pinch skin graft amounted to 7.8 ± 1.7 days. In addition, the MIC (in the assay on Candida albicans 3669 (setting [6]); in assay [2] (setting [7]); in assay [3] (setting [8]); in assay [4] (setting [9]); in assay [5] (setting [10])) was over 0.4 µg/mL throughout.

In the case of `CO[C@H]1C[C@@H]2CC[C@@H](C)[C@@](O)(O2)C(=O)C(=O)N2CCCC[C@H]2C(=O)O[C@H]([C@H](C)C[C@@H]2CC[C@@H](OC(=O)COCC(=O)O)[C@H](OC)C2)CC(=O)[C@H](C)/C=C(\C)[C@@H](OC(=O)COCC(=O)O)[C@@H](OC)C(=O)[C@H](C)C[C@H](C)/C=C/C=C/C=C/1C` [Example 8], the “LAF (ratio)” value in assay [1] is “positive ratio”. Also, the MIC in the assay with Candida albicans 3669 (setting [6]) was over 0.4 µg/mL; in assay [2] (ATCC 10231), 0.4 µg/mL (≈ 0.349 µM); in assay [3] (setting [8]), over 0.4 µg/mL; in assay [4] (setting [9]), 0.4 µg/mL (≈ 0.349 µM); in assay [5] (setting [10]) it was over 0.4 µg/mL.

As to `CO[C@H]1C[C@@H]2CC[C@@H](C)[C@@](OC(=O)CCC(=O)OCc3ccccc3)(O2)C(=O)C(=O)N2CCCC[C@H]2C(=O)O[C@H]([C@H](C)C[C@@H]2CC[C@@H](OC(=O)CCC(=O)OCc3ccccc3)[C@H](OC)C2)CC(=O)[C@H](C)/C=C(\C)[C@@H](OC(=O)CCC(=O)OCc2ccccc2)[C@@H](OC)C(=O)[C@H](C)C[C@H](C)/C=C/C=C/C=C/1C` [Example 1, Rapamycin-14,31,42-tris(monobenzylsuccinate)], the “LAF (ratio)” value in assay [1] is recorded as 0.37. The “Skin Graft (days + SD)” value with pinch skin graft was 8.2 ± 1.2 days. For the same compound, the MIC (in the assay on Candida albicans 3669 (setting [6]); in assay [2] (setting [7]); in assay [3] (setting [8]); in assay [4] (setting [9]); in assay [5] (setting [10])) was over 0.4 µg/mL each time.

As to `C=CCOC(=O)CCCC(=O)O[C@@H]1/C(C)=C/[C@@H](C)C(=O)C[C@@H]([C@H](C)C[C@@H]2CC[C@@H](O)[C@H](OC)C2)OC(=O)[C@@H]2CCCCN2C(=O)C(=O)[C@]2(O)O[C@@H](CC[C@H]2C)C[C@H](OC)/C(C)=C/C=C/C=C/[C@@H](C)C[C@@H](C)C(=O)[C@@H]1OC` [Example 15, Rapamycin-31-allylglutarate], the “LAF (ratio)” value in assay [1] came to 0.40. In addition, the “Skin Graft (days + SD)” value in the assay on pinch skin graft was determined as 9.8 ± 0.8 days.
